{"source": "patent US5108996A", "about": "“19-nor-3-keto steroids” (Roussel Uclaf, priority 1989, dated 1992)", "key": {"[1]": {"system": "lipid peroxidation (MDA formation) in rat liver microsomes", "experiment": "MDA formation triggered non-enzymatically by ferrous sulfate in rat liver microsomes (antioxidant activity)", "format": "biochemical, S-D rat", "conditions": "15 min 37° C", "protocol": "(§1) The antioxidant activity was tested in vitro by the test of formation of malondialdehyde (MDA) which measures lipid peroxidation triggered: either a) non-enzymatically by ferrous sulfate, in 1) brain homogenates, or 2) rat liver microsomes or b) enzymatically by NADPH and carbon tetrachloride in rat liver microsomes.\n1.2-MDA formation was measured on liver microsomes of S-D rats (200 g)\nprepared from the fraction sedimented at 100,000 G of a liver homogenate\nin a sucrose buffer, of which the fraction remaining insoluble at 100,000\nG in 100 mM sodium pyrophosphate buffer pH 7.4 was used and which was\nhomogenized in 100 mM sodium phosphate buffer pH 7.4 containing 20% of\nglycerol and then stored at -80° C.\nThe microsomes were incubated for 15 minutes at 37° C. in 1 ml containing 35 mM Tris-HCl buffer/0.1M KCl pH 7.4, 1 mg of microsomal protein, 5 microliters of ethanol containing or not containing the test product and 250 microliters of ascorbate solution in the Tris buffer (0.5 mM final), after the addition of 250 microliters of ferrous sulfate prepared immediately before use in the Tris buffer ([…]). The reaction was stopped by adding 2 ml of a 1M solution of trichloroacetic acid in 0.25M hydrochloric acid containing 0.4% of thiobarbituric acid. The mixture was heated to 85° C. for 25 minutes, cooled and centrifuged for 15 minutes at 3500 rpm, and the OD of the supernatant fraction was then read at 535 nm. The reaction blanks in the absence of Fe^++ were performed at the same time and the percentage inhibition was calculated as above."}, "[2]": {"system": "arachidonic acid-induced plantar oedema", "experiment": "Arachidonic acid-induced plantar oedema (anti-inflammatory activity)", "format": "in vivo, Sprague-Dawley male rat", "conditions": "for Change in volume of the foot 1 hour after AA (mean ± s.e.m.): controls 0.58 ± 0.03; for % inhibition: oedema, relative to control", "protocol": "The anti-inflammatory activity was assessed in vivo by measurement of the anti-oedematous activity in the test of arachidonic acid-induced plantar oedema described by Di Martino et al. (Agents and Actions, 1987 21 3/4 303). The experimental animals were Sprague-Dawley strain SPF male rats weighing 150 to 170 g (Iffa Credo).\nThis test was performed on groups of 8 male rats weighing 130 to 150 g, fasted for 16 hours. Arachidonic acid was injected under the plantar aponeurosis of one hindfoot at a dose of 0.2 mg in a volume of 0.1 ml. The volume of the foot was measured using a water plethysmometer before and 1 hour after the injection of arachidonic acid. The difference between these two volumes represented the degree of inflammation. The animals were treated with the test products or the vehicle alone at the same time as the injection of arachidonic acid. The test products were administered orally in a volume of 4 ml/kg after being suspended in 0.5% strength methyl cellulose. All the experiments were carried out with dexamethasone administered orally at a dose of 0.5 mg/kg as reference product.\nThe results were expressed as a change in volume of the foot 1 hour after the injection of arachidonic acid (AA) in the absence or in the presence of the test product administered at different doses. Statistical interpretation of the results was performed according to Dunnett's test (*p<[…]) or according to the Mann-Whitney test (^o p<0.05-^oo p<0.01). For each dose administered orally, the percentage inhibition of the oedema by the test product was calculated relative to the control."}, "[3]": {"system": "lipid peroxidation (MDA formation) in brain homogenates", "experiment": "MDA formation triggered non-enzymatically by ferrous sulfate in rat brain homogenates (antioxidant activity)", "format": "biochemical, S-D rat", "conditions": "brain homogenate, 60 min 37° C", "protocol": "as §1\n1.1-MDA formation was measured on 10-fold diluted (V/V) homogenates of brains of S-D (200 g), prepared in Krebs buffer pH 7.4 by the conditions described in J. Biol. Chem. Vol., 262 (1987), p. 10438 to 10440. 1 ml of homogenate was incubated for 60 minutes at 37° C. in the presence of 25 microliters of ethanol or water or a mixture of the two, depending on the product, containing or not containing the test product, after the addition of 25 microliters of ferrous sulfate solution prepared immediately before use in water outgassed with argon ([…]). 0.25 ml of incubated mixture was withdrawn and 1.5 ml of 1% strength phosphoric acid, 0.25 ml of a solution containing 200 microliters of deferoxamine (Desferal®, Ciba Geigy) in water, 10 microliters of butylated hydroxytoluene (BHT) at a concentration of 8.7 mg/ml in ethanol and 0.5 ml of thiobarbituric acid (TBA) at a concentration of 0.6% in water were added. The mixture was heated to 100° C. for 45 minutes and cooled. 4 ml of n-butanol were added and the mixture was centrifuged for 15 minutes at 4000 rpm and the OD of the supernatant fraction was then read at 535 nm. The reaction blanks in the absence of Fe^++ were incubated under the same conditions. The percentage inhibition was calculated as follows: […]"}, "[4]": {"system": "lipid peroxidation (MDA formation) in rat liver microsomes", "experiment": "MDA formation triggered enzymatically by NADPH and carbon tetrachloride in liver microsomes of phenobarbital-pretreated rats (antioxidant activity)", "format": "biochemical", "conditions": "NADPH/CCl4", "protocol": "as §1\n2-MDA formation was measured on liver microsomes of rats pretreated with phenobarbital (80 mg/kg in 3 i.p. injections), prepared as described above. The microsomes were incubated for 15 minutes at 37° C. in 1 ml containing 0.1M pH 7.4 phosphate buffer, 1 mg of microsomal protein, 5 microliters of ethanol containing or not containing the test product and 5 microliters of carbon tetrachloride (5.5 mM final) after the addition of 50 microliters of NADPH solution in the phosphate buffer (1 mM final). The reaction was stopped and the assay was then performed under the conditions described above."}, "[5]": {"system": "ferric nitrilotriacetate (NTA-Fe+++) intoxication in rats", "experiment": "Detoxifying activity in vivo: mortality induced in rats by ferric nitrilotriacetate (NTA-Fe+++) intoxication", "parameters": "species or system Wistar male rat", "conditions": "5 mg/kg i.p. 30 minutes before 15 mg/kg of poison (NTA-Fe+++, mg of iron/kg); none alive after 4 hours with poison alone", "protocol": "The detoxifying activity after intoxication associated with lipid peroxidaton was tested for by measurement of the mortality induced in rats by ferric nitrilotriacetate (NTA-Fe^+++) intoxication. A solution of NTA-Fe^+++ complex was prepared immediately before use, suspended in sesame oil and injected intraperitoneally at doses of 5, 10 or 15 mg of iron/kg of body weight into non-fasted Wistar male rats weighing approximately 200 g. The survival rate of rats which received a prior injection of the test product at a dose of 5 mg/kg intraperitoneally, 30 minutes before the injection of 15 mg/kg of poison was determined. Whereas none of the animals treated with the poison alone survived after 4 hours, 20% of the animals pretreated with the product of Example 2 were still alive 15 days later."}}}
{"smiles": "CCN(CC)c1ccc(N2CCN(CC#C[C@]3(O)CC[C@H]4[C@@H]5CCC6=CC(=O)CCC6=C5[C@@H](c5ccc(N(C)C)cc5)C[C@@]43C)CC2)nc1N(CC)CC", "note": "[Example 3, 11β-[4-(dimethylamino)-phenyl]-17α-[3-{4-[5,6-bis(diethylamino)-2-pyridyl]-1-piperazinyl}1-propynyl]-Δ^4,9-estradiene-17β-ol-3-one]", "values": [{"measurement": "percentage of inhibition", "setting": "[1]; 1 × 10^-5 M", "result": 99.9}, {"measurement": "percentage of inhibition", "setting": "[1]; 1 × 10^-6 M", "result": "78.2 ± 0.9"}, {"measurement": "percentage of inhibition", "setting": "[1]; 1 × 10^-7 M", "result": "5.2 ± 1"}, {"measurement": "percentage of inhibition", "setting": "[1]; 5 × 10^-6 M", "result": 99.5}, {"measurement": "Change in volume of the foot 1 hour after AA (mean ± s.e.m.)", "setting": "[2]; 1 mg/kg oral", "result": "0.48 ± 0.05", "unit": "cm^3"}, {"measurement": "Change in volume of the foot 1 hour after AA (mean ± s.e.m.)", "setting": "[2]; 4 mg/kg oral", "result": "0.43 ± 0.06", "unit": "cm^3"}, {"measurement": "Change in volume of the foot 1 hour after AA (mean ± s.e.m.)", "setting": "[2]; 20 mg/kg oral", "result": "0.40 ± 0.04", "unit": "cm^3"}, {"measurement": "anti-inflammatory activity", "setting": "[2]; low doses, oral", "result": "significant anti-inflammatory activity"}, {"measurement": "% inhibition", "setting": "[2]; 1 mg/kg oral", "result": -17, "unit": "%"}, {"measurement": "% inhibition", "setting": "[2]; 4 mg/kg oral", "result": -27, "unit": "%"}, {"measurement": "% inhibition", "setting": "[2]; 20 mg/kg oral", "result": -31, "unit": "%"}, {"measurement": "percentage of inhibition", "setting": "[3]; 1 × 10^-4 M", "result": "49.2 ± 2.3"}, {"measurement": "percentage of inhibition", "setting": "[3]; 1 × 10^-5 M", "result": "32.6 ± 10.1"}, {"measurement": "percentage of inhibition", "setting": "[3]; 5 × 10^-4 M", "result": "59.1 ± 3.2"}, {"measurement": "percentage of inhibition", "setting": "[4]; 1 × 10^-5 M", "result": 97}, {"measurement": "percentage of inhibition", "setting": "[4]; 1 × 10^-6 M", "result": "40 ± 1"}, {"measurement": "percentage of inhibition", "setting": "[4]; 5 × 10^-6 M", "result": "88 ± 2"}]}
{"smiles": "CCN(CC)c1ccc(N(CC)CC)c(N2CCN(CC#C[C@]3(O)CC[C@H]4[C@@H]5CCC6=CC(=O)CCC6=C5[C@@H](c5ccc(N(C)C)cc5)C[C@@]43C)CC2)n1", "note": "[Example 4, 17α-[3-{4-[3,6-bis(diethylamino)-2-pyridyl]-1]-piperazinyl}-1-propynyl]-11β-[4-(dimethylamino)-phenyl-Δ^4,9-estadiene-17β-ol-3-one]", "values": [{"measurement": "percentage of inhibition", "setting": "[1]; 1 × 10^-5 M", "result": 99.5}, {"measurement": "percentage of inhibition", "setting": "[1]; 1 × 10^-6 M", "result": "70 ± 2"}, {"measurement": "percentage of inhibition", "setting": "[1]; 1 × 10^-7 M", "result": "0 ± 2"}, {"measurement": "percentage of inhibition", "setting": "[1]; 5 × 10^-6 M", "result": 99.4}, {"measurement": "percentage of inhibition", "setting": "[3]; 1 × 10^-4 M", "result": "58.9 ± 10.9"}, {"measurement": "percentage of inhibition", "setting": "[3]; 1 × 10^-5 M", "result": "48.6 ± 6.2"}, {"measurement": "percentage of inhibition", "setting": "[3]; 5 × 10^-4 M", "result": "71.8 ± 10.2"}, {"measurement": "percentage of inhibition", "setting": "[4]; 1 × 10^-6 M", "result": "48 ± 3"}, {"measurement": "percentage of inhibition", "setting": "[4]; 5 × 10^-6 M", "result": "85 ± 2"}]}
{"smiles": "CN(C)c1ccc([C@H]2C[C@@]3(C)[C@@H](CC[C@@]3(O)C#CCN3CCN(c4cc(N5CCCC5)nc(N5CCCC5)n4)CC3)[C@@H]3CCC4=CC(=O)CCC4=C32)cc1", "note": "[Example 2, 11β-[4-(dimethylamino)-phenyl]-17α-[3-{4-[2,6-bis(1-pyrrolidinyl)-4-pyrimidinyl]-1-piperazinyl}-1-propynyl]-Δ^4,9-estradien-17β-ol-3-one methane sulfonate]", "values": [{"measurement": "animals still alive 15 days later (survival rate)", "setting": "[5]", "result": 20, "unit": "%"}, {"measurement": "percentage of inhibition", "setting": "[1]; 1 × 10^-5 M", "result": 98.5}, {"measurement": "percentage of inhibition", "setting": "[1]; 1 × 10^-6 M", "result": "48 ± 1"}, {"measurement": "percentage of inhibition", "setting": "[1]; 5 × 10^-6 M", "result": 91}, {"measurement": "percentage of inhibition", "setting": "[3]; 1 × 10^-4 M", "result": "59.6 ± 4.4"}, {"measurement": "percentage of inhibition", "setting": "[3]; 1 × 10^-5 M", "result": "16.0 ± 5.0"}, {"measurement": "percentage of inhibition", "setting": "[3]; 5 × 10^-4 M", "result": "60.9 ± 3.3"}, {"measurement": "percentage of inhibition", "setting": "[4]; 1 × 10^-5 M", "result": "91 ± 3"}, {"measurement": "percentage of inhibition", "setting": "[4]; 1 × 10^-6 M", "result": "28 ± 3"}, {"measurement": "percentage of inhibition", "setting": "[4]; 5 × 10^-6 M", "result": "82 ± 3"}]}
{"smiles": "CN(C)c1ccc([C@H]2C[C@@]3(C)[C@@H](CC[C@@]3(O)C#CCN3CCN(c4cc(N5CCCC5)nc(N5CCCC5)n4)CC3)[C@@H]3CCC4=CC(=O)CCC4=C32)cc1", "note": "[Example 1, 11β-[4-(dimethylamino)-phenyl]-17α-[3-{4-[2,6-bis(1-pyrrolidinyl)-4-pyrimidinyl]-1-piperazinyl}-1-propynyl]-Δ^4,9-estradiene-17β-ol-3-one]", "values": [{"measurement": "percentage of inhibition", "setting": "[1]; 1 × 10^-5 M", "result": "76 ± 0.8"}, {"measurement": "percentage of inhibition", "setting": "[1]; 1 × 10^-6 M", "result": "4 ± 0.6"}, {"measurement": "percentage of inhibition", "setting": "[1]; 5 × 10^-6 M", "result": 47}, {"measurement": "percentage of inhibition", "setting": "[3]; 1 × 10^-4 M", "result": "42.6 ± 7.5"}, {"measurement": "percentage of inhibition", "setting": "[3]; 1 × 10^-5 M", "result": "9.9 ± 6.4"}, {"measurement": "percentage of inhibition", "setting": "[3]; 5 × 10^-4 M", "result": "47.5 ± 8.8"}, {"measurement": "percentage of inhibition", "setting": "[4]; 1 × 10^-5 M", "result": "72 ± 3"}, {"measurement": "percentage of inhibition", "setting": "[4]; 1 × 10^-6 M", "result": "14 ± 4"}, {"measurement": "percentage of inhibition", "setting": "[4]; 5 × 10^-6 M", "result": "58 ± 5"}]}
